Laboratory results reported in ChEMBL document CHEMBL3507680, “University of Dundee, Gates Library screen for HepG2 cell viability”.

Experiment: Human HepG2 cell viability assay in 384 well format
Format: toxicity, cell-based
Parameters: dose 125 nL, time 70.5 hour; concentration not given beside the values
Settings: HepG2 cells, read-out: Inhibition

| SMILES | cytotoxicity at 70.5 h [%] |
| --- | --- |
| Cc1cccc(OCCCNC(=O)Cn2ccc(C)cc2=O)c1 | -6.82 |
| O=C(Nc1cc[nH]n1)c1ccc(COCC(F)(F)F)cc1 | -4 |
| CC(C)C(C)N(C(=O)Cn1nc2n(c1=O)CCCCC2)C1CC1 (centres undefined) | -11.4 |
| Cc1cc(C(=O)NC2CCCOc3cc(Cl)ccc32)n(C)n1 (centres undefined) | -5.69 |
| O=C(NC1CCCOc2cc(Cl)ccc21)c1ccc(=O)[nH]n1 (centres undefined) | -13.7 |
| Cc1nc(C)c(S(=O)(=O)NC(=O)c2ccoc2)s1 | -13 |
| NC(=O)CCC1CCCN(c2ccnc3cc(F)ccc23)C1 (centres undefined) | -12.1 |
| Cc1nc(C)c(S(=O)(=O)NC(=O)c2sccc2C)s1 | -14.3 |
| COCCOc1ccc(CNC2CCc3ncnn3C2)cc1OC (centres undefined) | -9.82 |
| CNc1snc(C)c1C(=O)NC(C)CC(=O)c1cccs1 (centres undefined) | -14.5 |
| CCc1ncnc(N2CCOCC2C2CC2)c1F (centres undefined) | -15.6 |
| Cc1ccc(N2CCCN(C(=O)CCCn3ccnc3C)CC2)nn1 | -0.226 |
| COC(=O)c1ccc(N(C(=O)c2cccnc2C)C(C)C)c(C)c1 | -7.81 |
| N#CCCn1cnc2c(Br)cccc2c1=O | -14.7 |
| O=C(NCc1ccc(OCC2CC2)nc1)C1COc2ccccc2O1 (centres undefined) | -5.51 |
| CC(C)C(C)NC(=O)Nc1cccc(OCC#N)c1 (centres undefined) | -8.7 |
| Cc1cccnc1NC(=O)c1ccc(F)c(S(=O)(=O)N2CCC2)c1 | -19.3 |
| O=C(NC1CCN(C2CC2)CC1)c1cn(-c2ccc(Cl)cc2)nn1 | -7.11 |
| Cc1ccnc(NC(=O)c2ccc(F)c(S(=O)(=O)NC3CC3)c2)c1 | -7.61 |
| CCOc1ccc(NC(=O)NCCCN(C)S(C)(=O)=O)cc1C | -15.1 |
| NC(=O)CN(Cc1ncc(-c2ccccc2)o1)C1CCCC1 | -7.44 |
| O=C(NC1CCN(C2CC2)C1)c1cn(-c2ccc(F)cc2)nn1 (centres undefined) | -6.52 |
| CC(C)(C)c1nc(CC(=O)NCCC(=O)Nc2ccncc2)cs1 | 5.09 |
| CCOc1ccc(NC(=O)NCCS(=O)(=O)CC)cc1C | -8.96 |

| SMILES | cytotoxicity at 70.5 h [%] |
| --- | --- |
| O=C(NCc1ccnc(OCC2CC2)c1)C1Cc2ccccc2O1 (centres undefined) | -4.48 |
| O=C(NC1CCCN(Cc2c(F)cccc2F)C1)c1cnccn1 (centres undefined) | 1.65 |
| COC(=O)c1ccc(N(C(=O)c2cscn2)C(C)C)c(C)c1 | -4.28 |
| CCOc1cc(NC(=O)N2CCOC3(CCC3)C2)ccc1C | -5.84 |
| CCOC(=O)N(C)C1CCN(Cc2cnc3ccccn23)CC1 | -4.79 |
| CC(Cn1cncn1)NC(=O)Nc1ccc(COC2CCCC2)cc1 (centres undefined) | -1.86 |
| CC(CCO)Nc1cccc(C(F)(F)F)n1 (centres undefined) | 3.64 |
| CC(C)c1ncc2c(n1)CN(Cc1ccc3c(c1)OCCO3)CC2 | 12.6 |
| CN(C1CCc2ccccc2C1)S(C)(=O)=O (centres undefined) | 0.716 |
| CC(CO)CSc1ncnc2[nH]ncc12 (centres undefined) | -0.794 |
| CC(C)COc1cncc(NC(CO)c2ccco2)n1 (centres undefined) | 11.4 |
| CCOc1ccccc1N(C)C(=O)c1ccc(Cl)cn1 | 21.8 |
| Cc1nn(C)c(C)c1OCC(=O)NCc1cccc(C(=O)O)c1 | 3.51 |
| CSCC(CCO)Nc1cccc(C(F)(F)F)n1 (centres undefined) | -1.51 |
| CC(C)C(=O)Nc1cc(C(C)(C)C)nn1-c1ccccn1 | -3.18 |
| c1cc(CN2CCc3cncnc3C2)c2c(c1)OCCO2 | -6.07 |
| CN(C)C(=O)c1ccccc1NCCCOc1cccc(C#N)c1 | 13.1 |
| Cc1cncc(NCC(O)c2ccco2)n1 (centres undefined) | -9.53 |
| O=C(Nc1cccnc1)Nc1cccc(CN2CCC(O)CC2)c1 | 10.2 |
| C1CC(c2noc(C3CC3)n2)CN(CCOCC2CC2)C1 (centres undefined) | 7.19 |
| Cc1nc(C)n(CC2CCCCN2CCCN2CCCC2=O)n1 (centres undefined) | 33.6 |
| O=C(NCc1ccccc1CN1CCCC1)Nc1cccnc1 | -4.93 |
| CC(C)(C)NC(=O)CNC(=O)c1cccnc1Oc1cccnc1 | -6.52 |
| c1coc(-c2nc(CN3CCOC(Cn4cccn4)C3)cs2)c1 (centres undefined) | 29.1 |

| SMILES | cytotoxicity at 70.5 h [%] |
| --- | --- |
| O=C(CN1CCOC(Cn2cccn2)C1)NC1CCN(C2CC2)CC1 (centres undefined) | -6.52 |
| COc1cc(C)nc(N2CCN(C(=O)CCc3cccs3)CC2)n1 | -6.26 |
| Cc1ccc(C(=O)NCc2ccc(N3CCNC(=O)C3)c(F)c2)cc1 | -0.234 |
| Cc1nc(C(=O)NCc2ccc(N3CCNC(=O)C3)c(F)c2)cs1 | -5.54 |
| O=C1CN(c2ccc(CNC(=O)c3cccnc3O)cc2F)CCN1 | -2.79 |
| COc1ncccc1CNC(=O)N(Cc1ccccc1F)C1CC1 | -0.0541 |
| CN(C)c1ncccc1CNC(=O)N(Cc1ccccc1F)C1CC1 | -4.47 |
| O=C(NCc1ccncc1)N(Cc1ccc(F)cc1F)C1CC1 | -5.41 |
| O=C(NCc1ccccc1CN1CCC(O)CC1)Nc1ccccc1 | -0.116 |
| CC(c1ccc(Cl)cc1)N1CCN(CCCS(C)(=O)=O)CC1 (centres undefined) | 1.48 |
| CC(c1ccc(Cl)cc1)N1CCN(CCS(N)(=O)=O)CC1 (centres undefined) | -0.779 |
| CC(c1ccc(C(F)(F)F)cc1)N1CCN(CCS(C)(=O)=O)CC1 (centres undefined) | -1.96 |
| O=C1CN(c2ccc(CNC(=O)c3ccc[nH]3)cc2F)CCN1 | 1.47 |
| CCN(CC1CCCO1)C(=O)Nc1cccc(N2CCOCC2)c1 (centres undefined) | 0.519 |
| COC(C)c1nc(CN2CCCNCC2)cs1 (centres undefined) | -3.19 |
| Cc1cccc(-c2noc(CN3CCC(c4ccn[nH]4)CC3)n2)c1 | -1.2 |
| COCCn1cc(C(=O)N2CCCC2c2cccc(C)c2)ccc1=O (centres undefined) | -4.94 |
| c1cc(C2CCN(Cc3nc(C4CC4)no3)CC2)[nH]n1 | -6.11 |
| CCN(C)S(=O)(=O)N1CCCC1CC(=O)c1cccs1 (centres undefined) | 32.3 |
| CCN(CC)S(=O)(=O)N1CCCC1CC(=O)c1cccs1 (centres undefined) | -4.6 |
| COCc1noc(C2(c3ccc(F)cc3)CC2)n1 | 12.6 |
| CC(C)(C)c1nnc(CNc2cc(F)ccc2OCC2CCCO2)o1 (centres undefined) | 32.8 |
| CCC(CNC(=O)c1ccccc1OC)N1CCc2ccccc2C1 (centres undefined) | 7.61 |
| CCC(CNC(=O)c1ccccc1Br)N1CCc2ccccc2C1 (centres undefined) | -9.67 |

| SMILES | cytotoxicity at 70.5 h [%] |
| --- | --- |
| Cc1csc(CNC(=O)NCC(O)c2ccc(F)cc2)n1 (centres undefined) | -12.5 |
| CCC(CNC(=O)c1ccco1)N1CCc2ccccc2C1 (centres undefined) | -12.8 |
| O=C(NCC1(N2CCOCC2)CCSC1)Nc1ccccn1 (centres undefined) | -9.14 |
| Cc1ccc(CN(C(=O)NCc2nnc3n2CCCCC3)C2CC2)o1 | -10.9 |
| O=C(NCc1nnc2n1CCC2)N(Cc1ccc(F)cc1)C1CC1 | -8.55 |
| CC(C)CCCC(C)NC(=O)c1ccc(OCC(N)=O)cc1 (centres undefined) | -6.3 |
| O=C(CN1C(=O)c2ccccc2CS1(=O)=O)c1ccc(Cl)cc1 | 7.63 |
| O=C(NCc1nnc2n1CCCCC2)N(Cc1ccccn1)C1CC1 | 0.752 |
| COC(=O)c1cccc(S(=O)(=O)N2CSCC2C(=O)N(C)C2CC2)c1 (centres undefined) | 12.1 |
| CC(=O)c1cccc(OCCCC(=O)N(C)Cc2cnc(C)s2)c1 | -6.22 |
| O=C(NCc1ccc(F)cc1)NCC1(N2CCOCC2)CCSC1 (centres undefined) | 7.3 |
| COCc1noc(C2(c3ccc(Cl)cc3)CCOCC2)n1 | -6.8 |
| C=C(C)CN1CCC(NC(=O)Nc2cc(C(N)=O)ccc2OC)CC1 | -2.27 |
| C=C(C)CN1CCC(NC(=O)NCCc2cccc(C(N)=O)c2)CC1 | -3.95 |
| CC(=O)c1cccc(OCCCC(=O)N(C)Cc2cscn2)c1 | 7.32 |
| CCNC(=O)CCC(=O)NC1(c2cccc(Br)c2)CC1 | -2.97 |
| Cc1ncccc1C(=O)NCc1ccccc1CN(C)Cc1ccco1 | -1.05 |
| Cc1ccsc1C(=O)Nc1ccc(N2CCC(O)CC2)c(C#N)c1 | -0.649 |
| Cc1ccc(C(=O)Nc2ccc(N3CCC(O)CC3)c(C#N)c2)s1 | 29.7 |
| N#Cc1cc(NC(=O)c2cscn2)ccc1N1CCC(O)CC1 | -4.48 |
| N#Cc1cc(NC(=O)c2ccccn2)ccc1N1CCC(O)CC1 | -3.91 |
| COc1ccccc1OCC(=O)NS(=O)(=O)c1ccc(Cl)cc1F | 13.3 |
| O=C(NCCc1nnc2n1CCC2)N(Cc1ccco1)C1CCCC1 | -6.25 |
| CC(=O)c1cccc(OCCCC(=O)N(C)Cc2cnn(C)c2)c1 | 9.09 |

| SMILES | cytotoxicity at 70.5 h [%] |
| --- | --- |
| CCOCC(=O)NC1(c2cccc(Cl)c2)CC1 | -8.22 |
| COCCCC(=O)NC1(c2cccc(Br)c2)CC1 | 8.13 |
| CCc1nc(CNc2cc(Cl)ccc2OCC2CCCO2)no1 (centres undefined) | -8.62 |
| COc1cccc(OCC(=O)NS(=O)(=O)c2cc(F)ccc2F)c1 | -5.46 |
| CC(O)(CNC(=O)NCc1cccc(-n2cncn2)c1)c1ccco1 (centres undefined) | 7.59 |
| COc1ccc(C(C)NC(=O)Nc2nnc(C)s2)cc1OC (centres undefined) | 2.44 |
| CC(NC(=O)CCc1nc(C(C)(C)C)no1)c1nnc2n1CCC2 (centres undefined) | -7.28 |
| O=C(NCCNC(=O)C1CC1)c1cnc(-c2ccccc2)nc1 | 16.6 |
| CCN(CC)CCNC(=O)c1cnc(-c2ccccc2)nc1 | -7.78 |
| OC1CCN(c2cnnc3ccccc23)CC1 | 30.5 |
| COCc1cccc(CNC(=O)CNc2ccccc2C(C)=O)c1 | 1.21 |
| COCc1ccccc1CNC(=O)CNc1ccccc1C(C)=O | 2.64 |
| CN(C(=O)C1(C#N)CCCCC1)c1nccs1 | -0.486 |
| CC(C)Oc1cccc(CNC(=O)N2CCC(N3CC=CC3)C2)c1 (centres undefined) | 26.6 |
| c1ccc(N(CCn2cncn2)CC2CC2)cc1 | -4.37 |
| NC(=O)C1CCCN1C(=O)c1cccc2c1OCO2 (centres undefined) | -1.57 |
| COCc1ccccc1CNC(=O)CNc1cccc(Cl)c1OC | -2.8 |
| CC(C)Nc1cccc(CNC(=O)N2CCC(N3CC=CC3)C2)c1 (centres undefined) | 30.6 |
| Cc1nc(CCNC(C)c2ccc3c(c2)OCCCO3)cs1 (centres undefined) | 0.884 |
| Cc1ccccc1CN1CCCN(C(=O)c2ccn(C)c(=O)c2)CC1 | -1.43 |
| COC(=O)c1ccc(CNC(C)(C)c2ccccc2OC)o1 | -6.94 |
| Cc1nn(CCC#N)c(C)c1CCC(=O)N(C)Cc1ccc(F)cc1F | -4.98 |
| CN(Cc1nc2ccsc2c(=O)[nH]1)CC1CCCCC1 | -6.1 |
